Source: the supplement of paper PMC9763283

What was measured:
Experiment in all cases: area under growth-rate inhibition curve (AUC GRI) (dimensionless (GR-based AUC)); higher = less growth inhibition
Details in all cases: exposure time: 72 h; concentrations: 0.1, 1, 10 uM
[1] = test system: MDA-MB-468
Outline: (§1)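 Six breast cancer cell line models were used: two triple-negative lines, plus parental HER2+ lines and HER2+ lines resistant to a two-drug combination, each plated at an optimised log-phase density and treated with compound at 0.1, 1 or 10 µM for 72 h. After fixation in 4% paraformaldehyde, nuclei were stained with Hoechst 33342 or DAPI, imaged and counted. Growth was corrected using Day 0 plates, untreated Day 3 plates and DMSO controls, with 2 biological replicates. These corrected counts gave the area under the growth-rate inhibition curve.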

[2] = test system: BT474-LTR
Outline: as §1

[3] = test system: SKBR3-P
Outline: as §1

[4] = test system: BT474-P
Outline: as §1

[5] = test system: MDA-MB-231
Outline: as §1

[6] = test system: SKBR3-LTR
Outline: as §1

SMILES | area under growth-rate inhibition curve [1] | area under growth-rate inhibition curve [2] | area under growth-rate inhibition curve [3] | area under growth-rate inhibition curve [4] | area under growth-rate inhibition curve [5] | area under growth-rate inhibition curve [6]
Cc1nc(C#Cc2ccnc(Cl)c2)c(C)n1-c1ccc(OC(F)(F)F)cc1 | 1 | 1.09 | 1 | 0.969 | 1.03 | 0.968
CCN(CC)CCNC(=O)c1cc(Cl)c(N)cc1OC.Cl [MetoclopraMide HCl] | 1.01 | 1.09 | 1.02 | 1.04 | 1.05 | 1.04
Nc1nc(CC(=O)Nc2ccc(CCNCC(O)c3ccccc3)cc2)cs1 (stereo not drawn) [Mirabegron] | 1.01 | 1.11 | 1.02 | 1.04 | 1.02 | 1.07
O=C1Cc2cc(CCN3CCN(c4nsc5ccccc45)CC3)c(Cl)cc2N1.[Cl-].[H+] [Ziprasidone hydrochloride] | 1.03 | 1.06 | 1 | 0.993 | 1.03 | 1.05
CN(C)CCc1c[nH]c2ccc(C[C@H]3COC(=O)N3)cc12 [Zolmitriptan] | 1.05 | 1.09 | 1.03 | 1.06 | 1.06 | 1.07
CCC(COC(=O)c1cc(OC)c(OC)c(OC)c1)(c1ccccc1)N(C)C (stereo not drawn) [Trimebutine] | 0.984 | 0.977 | 1.03 | 0.981 | 0.972 | 1
CN(C)CC(c1ccc(O)cc1)C1(O)CCCCC1 (stereo not drawn) [Desvenlafaxine] | 1.03 | 1.07 | 1 | 1.03 | 1 | 1.05
COCCCN1CCC(NC(=O)c2cc(Cl)c(N)c3c2OCC3)CC1 [Prucalopride] | 1.04 | 1.07 | 1.01 | 1.02 | 1.05 | 1.06
CC(=O)CCCCn1c(=O)c2c(ncn2C)n(C)c1=O [Pentoxifylline] | 1.04 | 1.03 | 1.02 | 1 | 1.04 | 1.05
O=C1CCc2cc(OCCCCc3nnnn3C3CCCCC3)ccc2N1 [Cilostazol] | 1.03 | 1.04 | 1.03 | 1 | 1.05 | 1.06
O=C(O[C@H]1C[C@H]2CC[C@@H](C1)[N+]21CCCC1)C(O)(c1ccccc1)c1ccccc1.[Cl-] [Trospium chloride] | 1.06 | 1.11 | 1 | 1.06 | 1.04 | 1.09
CCC1(c2c[nH]cn2)Cc2ccccc2C1 [Atipamezole] | 1.01 | 1.08 | 1.01 | 1.04 | 1.02 | 1.09
CC#C[C@]1(O)CC[C@H]2[C@@H]3CCC4=CC(=O)CCC4=C3[C@@H](c3ccc(N(C)C)cc3)C[C@@]21C [Mifepristone] | 0.989 | 1.02 | 0.962 | 1 | 1.03 | 0.998
CN1CCC(=C2c3ccccc3C=Cc3ccccc32)CC1.[Cl-].[H+] [Cyproheptadine HCl] | 1 | 1.03 | 1 | 1.03 | 1.02 | 1.09
CC(=O)OC1CC2CCC3C(CCC4(C)C3CC([N+]3(C)CCCCC3)C4OC(C)=O)C2(C)CC1[N+]1(C)CCCCC1.[Br-].[Br-] (stereo not drawn) [Pancuronium dibromide] | 1.01 | 1.06 | 0.989 | 1.01 | 1 | 0.978
CCCCc1ncc(C=C(Cc2cccs2)C(=O)O)n1Cc1ccc(C(=O)O)cc1.CS(=O)(=O)O [Eprosartan mesylate] | 1.05 | 1.06 | 1.03 | 1.02 | 1.04 | 1.06
COc1ccccc1N1CCN(CCN(C(=O)C2CCCCC2)c2ccccn2)CC1.O=C(O)/C=C\C(=O)O | 0.993 | 1.06 | 0.976 | 1.02 | 1.03 | 1.04
CCCSc1nc(NC2CC2c2ccc(F)c(F)c2)c2nnn(C3CC(OCCO)C(O)C3O)c2n1 (stereo not drawn) [Ticagrelor] | 0.975 | 0.984 | 0.995 | 0.922 | 0.975 | 0.968
COc1ccccc1OCCNCC(O)COc1cccc2[nH]c3ccccc3c12 (stereo not drawn) [Carvedilol] | 0.937 | 1.03 | 1 | 0.957 | 1.03 | 1.07
Cc1cc(NC(=O)Nc2ccc(N(C)C)cc2)c2cc(F)cc(F)c2n1 | 0.951 | 0.977 | 1 | 0.963 | 0.936 | 0.958
CC(=O)O[C@]1(C(C)=O)CC[C@H]2[C@@H]3C=C(C)C4=CC(=O)CC[C@]4(C)[C@H]3CC[C@@]21C [Megestrol Acetate] | 1.01 | 1.09 | 0.968 | 0.978 | 1 | 1.09
CC(=O)[C@@]1(O)CC[C@H]2[C@@H]3CCC4=CC(=O)CC[C@]4(C)[C@H]3CC[C@@]21C [17-Hydroxyprogesterone] | 1 | 1.07 | 1 | 1.02 | 1.02 | 1.03
COc1ccc(NS(=O)(=O)c2sc3ccc(Cl)cc3c2C)cc1N1CCNCC1 | 0.964 | 1.03 | 0.997 | 0.976 | 1.05 | 1.05
CCCc1c2oc(C(=O)O)cc(=O)c2cc2c(=O)cc(C(=O)O)n(CC)c12 [Nedocromil] | 1.05 | 1.04 | 1.02 | 1.02 | 1.03 | 1.05
Cc1cccc(C(C)c2c[nH]cn2)c1C (stereo not drawn) [Dexmedetomidine] | 1.02 | 1.1 | 1.04 | 1.04 | 1.04 | 1.04
CC(COc1ccccc1)N(CCCl)Cc1ccccc1.[Cl-].[H+] (stereo not drawn) [Phenoxybenzamine HCl] | 1 | 0.978 | 1.01 | 0.997 | 0.984 | 1.01
C#C[C@]1(O)CC[C@H]2[C@@H]3CCC4=CC(=O)CC[C@@H]4[C@H]3C(=C)C[C@@]21CC [Etonogestrel] | 1.03 | 0.993 | 1 | 0.958 | 0.976 | 1.05

SMILES | area under growth-rate inhibition curve [1] | area under growth-rate inhibition curve [2] | area under growth-rate inhibition curve [3] | area under growth-rate inhibition curve [4] | area under growth-rate inhibition curve [5] | area under growth-rate inhibition curve [6]
CN1CCC(=C2c3ccccc3CC(=O)c3sccc32)CC1.O=C(O)/C=C/C(=O)O [Ketotifen Fumarate] | 1 | 1.07 | 1.01 | 1.02 | 0.939 | 1.1
CN1CCC(c2c[nH]c3ccc(O)cc23)CC1 | 0.984 | 0.996 | 1.02 | 0.996 | 1 | 0.997
OC(CN1CCN(c2cccc(Cl)c2)CC1)C(c1ccccc1)c1ccccc1.[Cl-].[Cl-].[H+].[H+] (stereo not drawn) | 0.981 | 1.07 | 0.982 | 1.04 | 1.04 | 1.05
COc1nc(C)cnc1NS(=O)(=O)c1cccnc1-c1ccc(-c2nnco2)cc1 [Zibotentan (ZD4054)] | 1.01 | 1.07 | 0.958 | 1.02 | 1.03 | 1.04
Cc1c(-c2ccc(O)cc2)n(Cc2ccc(OCCN3CCCCCC3)cc2)c2ccc(O)cc12.[Cl-].[H+] [Bazedoxifene HCl] | 0.898 | 0.949 | 0.956 | 0.755 | 0.9 | 0.944
COCCc1ccc(OCC(O)CNC(C)C)cc1.O=C(O)C(O)C(O)C(=O)O (stereo not drawn) [Metoprolol Tartrate] | 0.98 | 1.01 | 0.999 | 0.987 | 1.01 | 0.997
C[C@H]1CNCCc2ccc(Cl)cc21.[Cl-].[H+] [Lorcaserin HCl] | 1.03 | 1.09 | 1.03 | 1.06 | 1.02 | 1.03
CN1CCCC(n2nc(Cc3ccc(Cl)cc3)c3ccccc3c2=O)CC1.[Cl-].[H+] (stereo not drawn) [Azelastine HCl] | 0.985 | 1.06 | 0.938 | 1.01 | 1.02 | 1.02
COc1ccccc1N1CCN(CC(O)COc2cccc3ccccc23)CC1.[Cl-].[Cl-].[H+].[H+] (stereo not drawn) [Naftopidil DiHCl] | 0.995 | 1.02 | 0.983 | 0.978 | 1.02 | 1.05
NCC1(CC(=O)O)CCCCC1 [Gabapentin] | 1.04 | 1.04 | 1.03 | 1 | 1.04 | 1.08
CC(=O)NCCCS(=O)(=O)[O-].CC(=O)NCCCS(=O)(=O)[O-].[Ca+2] [Acamprosate calcium] | 1 | 1.01 | 1.01 | 1.01 | 0.995 | 1.03
C=CCN1CCC23c4c5ccc(O)c4OC2C(OCCOCCOCCOCCOCCOCCOCCOC)CCC3(O)C1C5 (stereo not drawn) [Naloxegol] | 1.02 | 0.997 | 1.01 | 1 | 0.991 | 1.01
CC12CCC(=O)C=C1C1CC1C1C2CCC2(C)C1C1CC1C21CCC(=O)O1 (stereo not drawn) [Drospirenone] | 1.05 | 1.09 | 1.03 | 1.04 | 1.01 | 1.05
CNCC[C@H](Oc1cccc2ccccc12)c1cccs1.[Cl-].[H+] [Duloxetine HCl] | 0.88 | 0.98 | 0.964 | 0.892 | 1 | 1.02
Cc1cccc(C)c1NC(=O)CN1CCCC1=O [Nefiracetam] | 1.03 | 1.06 | 1 | 1.05 | 1.02 | 1.03
CN1CCN(c2nc3ccccc3nc2Cl)CC1 | 0.986 | 1.01 | 0.987 | 0.997 | 0.97 | 1.01
S=C=Nc1cccc(NC(=S)NCCCCNC(=S)Nc2cccc(N=C=S)c2)c1 [MRS 2578] | 1.03 | 1.08 | 1.02 | 1.02 | 1.02 | 1.07
OCCN1CCN(CCCN2c3ccccc3Sc3ccc(Cl)cc32)CC1 [Perphenazine] | 1.03 | 1.03 | 1.01 | 0.983 | 1.04 | 1.04
COCCCC/C(=N\OCCN)c1ccc(C(F)(F)F)cc1.O=C(O)/C=C\C(=O)O [Fluvoxamine maleate] | 1.03 | 1.1 | 1.02 | 1.04 | 1.01 | 1.05
COc1ccc(C(Cl)=C(c2ccc(OC)cc2)c2ccc(OC)cc2)cc1 [Chlorotrianisene] | 1 | 1.08 | 0.987 | 0.983 | 1.01 | 1.05
CCCC1O[C@@H]2C[C@H]3[C@@H]4CCC5=CC(=O)C=C[C@]5(C)[C@H]4[C@@H](O)C[C@]3(C)[C@]2(C(=O)CO)O1 (stereo partly drawn) [Budesonide] | 1.03 | 0.98 | 0.912 | 0.901 | 0.971 | 1.03
CN/C(=C\[N+](=O)[O-])NCCSCc1ccc(CN(C)C)o1 [Ranitidine] | 1.04 | 1.1 | 1.03 | 1.07 | 1.01 | 1.03
CC(C)NCC(O)c1ccc(NS(C)(=O)=O)cc1.[Cl-].[H+] (stereo not drawn) [Sotalol] | 1.05 | 1.09 | 1.03 | 1.05 | 1.03 | 1.07
CCCNS(=O)(=O)Nc1ncnc(OCCOc2ncc(Br)cn2)c1-c1ccc(Br)cc1 [Macitentan] | 1.02 | 1.01 | 1.02 | 0.957 | 1.02 | 1.02
CCOC(=O)NC1CCC2C(C1)CC1C(=O)OC(C)C1C2C=Cc1ccc(-c2cccc(F)c2)cn1 (stereo not drawn) [Vorapaxar] | 0.966 | 1.04 | 0.944 | 0.947 | 1.01 | 0.983
c1ccc(NCc2ccc(CNc3ccccn3)cc2)nc1 [WZ811] | 1.04 | 1.08 | 1.01 | 1.02 | 1.02 | 1.04
